Source: US20230013669A1, “Antibacterial Treatment Using a Cannabinoid and an Active Agent” (priority 2019, published 2023)
Values joined by “and” are separate entries in the source; they are usually repeats but may differ in a detail not shown here. Equal entries are not always repeated. Where two headings read alike, the source gives them in different places.

Tested on: Escherichia coli ATCC 25922 (GN_001)
Assay: Synergy of cannabidiol with cell-wall disrupting agent (CBD MIC in combination, FICI)
Format: cell-based
Conditions: for FICI: calculated using MIC of 256 μg/mL for cannabidiol; for MIC: Escherichia coli
Procedure: The compounds were stored short term at 4° C.
Analysis was performed using Microsoft Excel.

C=C(C)C1CCC(C)=CC1c1c(O)cc(CCCCC)cc1O (stereo not shown) [Cannabidiol, 2-[3-methyl-6-(1-methylethenyl)-2-cyclohexen-1-yl]-5-pentyl-1,3-benzenediol] was tested, and the “CBD MIC with Cefuroxime” value (Cefuroxime at 4 μg/mL, Escherichia coli ATCC 25922) was 0.001 mg/L, the “CBD MIC with Cefuroxime” value (Cefuroxime at 8 μg/mL, Escherichia coli ATCC 25922) was 0.001 mg/L and the “CBD MIC with Colistin” value (Colistin at 0.06 μg/mL (0.062 in Table 56), Escherichia coli ATCC 25922) was 8 mg/L. For the same compound, the “CBD MIC with Colistin” value (Colistin at 0.25 μg/mL, Escherichia coli ATCC 25922) was 1 mg/L, the “CBD MIC with Colistin” value (Colistin at 0.5 μg/mL, Escherichia coli ATCC 25922) was 0.125 mg/L and the “CBD MIC with Colistin” value (Colistin at […], Escherichia coli ATCC 25922) was 2 mg/L. For the same compound, the FICI range (Escherichia coli ATCC 25922, CBD with FADDI-287, MIC table (Table 95), listed as CBD) was 0.5-16 and 0.25-8, the FICI range (Escherichia coli ATCC 25922, CBD with FADDI-287, Synergy table (Table 97), listed as CBD) was 0.5 and 0.25-0.5 and the FICI range (Escherichia coli ATCC 25922, CBD with MCC_8980, MIC table (Table 99)) was 0.03-1.02. For the same compound, the FICI range (Escherichia coli ATCC 25922, CBD with MCC_8980, Synergy table (Table 101), listed as CBD) was 0.03-0.26 and 0.03-0.25, the FICI range (Escherichia coli ATCC 25922, CBD with Spero Potentiator SPR741, MIC table (Table 91), listed as CBD) was 0.02-1 and 0.04-1.02 and 0.02-1.01 and the FICI range (Escherichia coli ATCC 25922, CBD with Spero Potentiator SPR741, Synergy table (Table 93), listed as CBD) was 0.02-0.25 and 0.04-0.25. The “CBD MIC with FADDI-287” value (Escherichia coli ATCC 25922, FADDI-287 at […], listed as CBD) was 1 mg/L, the “CBD MIC with MCC_8980” value (Escherichia coli ATCC 25922, MCC_8980 at 4 μg/mL, listed as CBD) was 16 mg/L and the “CBD MIC with MCC_8980” value (Escherichia coli ATCC 25922, MCC_8980 at 16 μg/mL, listed as CBD) was 1 mg/L. The “CBD MIC with Spero SPR206” value (Escherichia coli ATCC 25922, Spero SPR206 at 4 μg/mL, listed as CBD) was 0.0019 mg/L, the FICI (Escherichia coli ATCC 25922, cannabidiol with FADDI-287 at 0.5 μg/mL) was 2 and the FICI (Escherichia coli ATCC 25922, cannabidiol with FADDI-287 at 1 μg/mL) was 4 and 2. The FICI (Escherichia coli ATCC 25922, cannabidiol with FADDI-287 at 2 μg/mL) was 8 and 4, the FICI (Escherichia coli ATCC 25922, cannabidiol with FADDI-287 at 4 μg/mL) was 16 and 8 and the FICI (Escherichia coli ATCC 25922, cannabidiol with FADDI-287 at […]) was 0.502. The FICI (Escherichia coli ATCC 25922, cannabidiol with MCC_8980 at 0.5 μg/mL) was 1.008, the FICI (Escherichia coli ATCC 25922, cannabidiol with MCC_8980 at 1 μg/mL) was 1.016 and the FICI (Escherichia coli ATCC 25922, cannabidiol with MCC_8980 at 2 μg/mL) was 0.03125. For the same compound, the FICI (Escherichia coli ATCC 25922, cannabidiol with MCC_8980 at 4 μg/mL) was 0.1875, the FICI (Escherichia coli ATCC 25922, cannabidiol with MCC_8980 at 4 μg/mL, listed as cannabidiol) was 0.125 and the FICI (Escherichia coli ATCC 25922, cannabidiol with MCC_8980 at 8 μg/mL) was 0.1328. The FICI (Escherichia coli ATCC 25922, cannabidiol with SPR741 at 0.5 μg/mL) was 1.008 and 1.004, the FICI (Escherichia coli ATCC 25922, cannabidiol with SPR741 at 1 μg/mL) was 1.016 and the FICI (Escherichia coli ATCC 25922, cannabidiol with SPR741 at 16 μg/mL) was 0.127. The MIC (ATCC25922, Escherichia coli ATCC 25922, FADDI-287 at 0.25 μg/mL, read-out: CBD MIC with FADDI-287) was 0.062 mg/L, the MIC (ATCC25922, Escherichia coli ATCC 25922, FADDI-287 at 0.5 μg/mL, read-out: CBD MIC with FADDI-287) was 0.001 mg/L and the MIC (ATCC25922, Escherichia coli ATCC 25922, FADDI-287 at 1 μg/mL, read-out: CBD MIC with FADDI-287) was 0.001 mg/L. It also gave an MIC (ATCC25922, Escherichia coli ATCC 25922, FADDI-287 at 2 μg/mL, read-out: CBD MIC with FADDI-287) of 0.001 mg/L, an MIC (ATCC25922, Escherichia coli ATCC 25922, FADDI-287 at 4 μg/mL, read-out: CBD MIC with FADDI-287) of 0.001 mg/L and an MIC (ATCC25922, Escherichia coli ATCC 25922, MCC_8980 at 2 μg/mL, read-out: CBD MIC with MCC_8980) of 0.001 mg/L. It also gave an MIC (ATCC25922, Escherichia coli ATCC 25922, MCC_8980 at 4 μg/mL, read-out: CBD MIC with MCC_8980) of 32 mg/L, an MIC (ATCC25922, Escherichia coli ATCC 25922, MCC_8980 at 8 μg/mL, read-out: CBD MIC with MCC_8980) of 2 mg/L and an MIC (ATCC25922, Escherichia coli ATCC 25922, MCC_8980 at 16 μg/mL, read-out: CBD MIC with MCC_8980) of 2 mg/L. For the same compound, the MIC (ATCC25922, Escherichia coli ATCC 25922, Spero SPR206 at 0.007 μg/mL, read-out: CBD MIC with Spero SPR206) was no less than 32 mg/L, the MIC (ATCC25922, Escherichia coli ATCC 25922, Spero SPR206 at 0.015 μg/mL, read-out: CBD MIC with Spero SPR206) was no less than 32 mg/L and the MIC (ATCC25922, Escherichia coli ATCC 25922, Spero SPR206 at 0.062 μg/mL, read-out: CBD MIC with Spero SPR206) was 1 mg/L. The MIC (ATCC25922, Escherichia coli ATCC 25922, Spero SPR206 at 4 μg/mL, read-out: CBD MIC with Spero SPR206) was 0.001 mg/L, the MIC (ATCC25922, MCC_6442 at 2 μg/mL, Escherichia coli ATCC 25922, read-out: CBD MIC with MCC_6442) was 0.0039 mg/L and the MIC (ATCC25922, MCC_6442 at 4 μg/mL, Escherichia coli ATCC 25922, read-out: CBD MIC with MCC_6442) was 0.001 mg/L. The MIC (ATCC25922, Octapeptin C4 at 4 μg/mL, read-out: CBD MIC with Octapeptin C4) was 0.062 mg/L, the MIC (ATCC25922, Spero SPR206 at 0.007 μg/mL, 2nd of 3 experiments, read-out: CBD MIC with Spero SPR206) was greater than 256 mg/L and the MIC (ATCC25922, Spero SPR206 at 0.015 μg/mL, 2nd of 3 experiments, read-out: CBD MIC with Spero SPR206) was greater than 256 mg/L. It also gave an MIC (ATCC25922, Spero SPR206 at 0.062 μg/mL, 2nd of 3 experiments, read-out: CBD MIC with Spero SPR206) of 1 mg/L, an MIC (ATCC25922, Spero SPR206 at 0.25 μg/mL, 1st of 3 experiments, read-out: CBD MIC with Spero SPR206) of 0.001 mg/L and an MIC (ATCC25922, Spero SPR206 at 0.25 μg/mL, 2nd of 3 experiments, read-out: CBD MIC with Spero SPR206) of 1 mg/L. The MIC (ATCC25922, Spero SPR206 at 0.25 μg/mL, 3rd of 3 experiments, read-out: CBD MIC with Spero SPR206) was greater than 256 mg/L, the MIC (ATCC25922, Spero SPR206 at 0.5 μg/mL, 1st of 3 experiments, read-out: CBD MIC with Spero SPR206) was 0.001 mg/L and the MIC (ATCC25922, Spero SPR206 at 0.5 μg/mL, 3rd of 3 experiments, read-out: CBD MIC with Spero SPR206) was 2 mg/L. For the same compound, the MIC (ATCC25922, Spero SPR206 at 1 μg/mL, 1st of 3 experiments, read-out: CBD MIC with Spero SPR206) was 0.001 mg/L, the MIC (ATCC25922, Spero SPR206 at 1 μg/mL, 3rd of 3 experiments, read-out: CBD MIC with Spero SPR206) was 0.5 mg/L and the MIC (ATCC25922, Spero SPR206 at 2 μg/mL, 1st of 3 experiments, read-out: CBD MIC with Spero SPR206) was 0.001 mg/L. It also gave an MIC (ATCC25922, Spero SPR206 at 2 μg/mL, 3rd of 3 experiments, read-out: CBD MIC with Spero SPR206) of 0.25 mg/L, an MIC (ATCC25922, Spero SPR206 at 4 μg/mL, 1st of 3 experiments, read-out: CBD MIC with Spero SPR206) of 0.001 mg/L and an MIC (ATCC25922, Spero SPR206 at 4 μg/mL, 3rd of 3 experiments, read-out: CBD MIC with Spero SPR206) of 0.001 mg/L. For the same compound, the “activity of cannabidiol in combination with Polymyxin B” value (Example 1) was “effective”, the “Average FICI score” value (Example 1, GN_001, cannabidiol + MCC_006636 (Polymyxin B)) was 0.15 and the Synergy (Example 1, GN_001, cannabidiol + MCC_006636 (Polymyxin B), synergy when FICI≤0.5) was “YES”. For the same compound, the “activity of cannabidiol combined with colistin” value (Example 3) was “effective”, the “CBD MIC with Colistin at concentration 0.015625 μg/mL” value (Example 3, GN_001) was greater than 256 mg/L and the “CBD MIC with Colistin at concentration 0.03125 μg/mL” value (Example 3, GN_001) was greater than 256 mg/L. For the same compound, the “CBD MIC with Colistin at concentration 0.0625 μg/mL” value (Example 3, GN_001) was 8 mg/L, the “CBD MIC with Colistin at concentration 0.25 μg/mL” value (Example 3, GN_001) was 1 mg/L and the “CBD MIC with Colistin at concentration 0.5 μg/mL” value (Example 3, GN_001) was 0.125 mg/L. For the same compound, the “CBD MIC with Colistin at concentration […]” value (Example 3, GN_001) was 2 mg/L, the “activity of cannabidiol combined with Polymyxin B” value (Example 6) was “effective” and the “CBD MIC with Polymyxin B at concentration 0.015625 μg/mL” value (Example 6, GN_001) was greater than 256 mg/L. The “CBD MIC with Polymyxin B at concentration 0.03125 μg/mL” value (Example 6, GN_001) was greater than 256 mg/L, the “CBD MIC with Polymyxin B at concentration 0.0625 μg/mL” value (Example 6, GN_001) was greater than 256 mg/L and the “CBD MIC with Polymyxin B at concentration 0.5 μg/mL” value (Example 6, GN_001) was 0.0009766 mg/L. For the same compound, the “CBD MIC with Polymyxin B at concentration […]” value (Example 6, GN_001) was greater than 256 mg/L, the “CBD MIC with Polymyxin B at concentration 0.25 μg/mL” value (Example 6, GN_001, listed as CBD) was 2 mg/L and 4 mg/L and the “activity of cannabidiol in combination with octapeptin MCC_006442” value (Example 7) was “slightly effective”. For the same compound, the “activity of cannabidiol combined with ticarcillin” value (Example 13) was “effective”, the “activity of cannabidiol combined with colistin” value (Example 14) was “effective” and the “activity of cannabidiol combined with octapeptin MCC_006442” value (Example 15) was “effective”. For the same compound, the “activity of cannabidiol combined with cefotetan” value (Example 17) was “effective”, the “activity of cannabidiol combined with aztreonam” value (Example 18) was “effective” and the “activity of cannabidiol combined with cefepime” value (Example 19) was “effective”. The “activity of cannabidiol combined with octapeptin C4” value (Example 21) was “effective”, the “activity of cannabidiol in combination with Spero Potentiator SPR741” value (Example 22) was “effective” and the “activity of cannabidiol in combination with Spero SPR206” value (Example 22) was “effective”. For the same compound, the “activity of cannabidiol in combination with octapeptin FADDI-287” value (Example 23) was “effective”, the “activity of cannabidiol in combination with MCC_8980” value (Example 24) was “effective” and the “CBD MIC with MCC_6442” value (MCC_6442 at 2 μg/mL, Escherichia coli ATCC 25922, listed as CBD) was 0.0078 mg/L. For the same compound, the “CBD MIC with Spero SPR206” value (Spero SPR206 at 1 μg/mL, 3rd of 3 experiments, listed as CBD) was 0.25 mg/L, the “CBD MIC with Spero SPR206” value (Spero SPR206 at 4 μg/mL, 3rd of 3 experiments, listed as CBD) was 0.0019 mg/L and the “CBD MIC with Ticarcillin” value (Ticarcillin at 4 μg/mL, Escherichia coli ATCC 25922) was 0.125 mg/L. The “CBD MIC with Ticarcillin” value (Ticarcillin at 8 μg/mL, Escherichia coli ATCC 25922) was 0.001 mg/L.
